{
  "source": "patent US8834841B2",
  "about": "“Imaging agents” (priority 2005, dated 2014)",
  "key": {"[1]": {"tested_on": "U87 Glioma Tumor Cells Implanted SC in SCID Mice", "assay": "tissue distribution, U87 tumor-bearing SCID mice", "assay_type": "in vivo", "experimental": "For the in vitro amino acid uptake studies, all cells can be grown to monolayer confluency in T-175 culture flasks [Corning, Corning, N.Y.] (approx. 1×10^8 cells/flask) in Dulbecco's Modified Eagle's Medium (DMEM) [Sigma, St. Louis, Mo.] in a humidified incubator (37° C., 5% CO2/95% air). Media are supplemented with 10% fetal calf serum [Hyclone, Logan, Utah], and antibiotics (10,000 U/ml penicillin and 10 mg/ml streptomycin) (Sigma, St. Louis, Mo.). For tissue culture passage, monolayer cells are detached by gentle trypsinization, resuspended in complete media, and split 1:10 into new T-flasks. Cultures are passaged weekly, and fed fresh media every 2 to 3 days. To initiate tumor growth in SCID mice, 1×10^6 cells are injected s.c. bilaterally into the flanks (inguinal region) of the recipient animals using a 1 ml syringe with a 27 gauge needle. Ex vivo experiments can be performed with animals containing tumors weighing between 500 mg and 1 g, as estimated by caliper measurement (tumor weight=(π/6)*abc, where a, b and c are the tumor length, width and height, respectively). The compounds of the invention are further evaluated for their tumor specificity and selectivity in tumor-bearing animal models. One can evaluate and compare the transport, accumulation and tissue distribution of each compound in these in vivo animal studies. Tissue distribution of the compounds is measured in SCID mice (average weight, 20-25 g) bearing human tumors as follows. The candidate radioligands (20 uCi in 0.4 ml 0.9% NaCl) are injected into the tail vein of tumor-bearing mice. […] Tissues (blood, heart, liver, lungs, kidneys, bone, thyroid, muscle, brain and tumor) are excised, rinsed in saline, and blotted dry. The tissues are weighed, placed into 12×75 mm glass vials, the radioactivity determined with a gamma counter, and the percent dose/gram calculated. Total activities of blood and muscle are calculated by assuming that they account for 7% and 40% of the total body mass, respectively."}, "[2]": {"tested_on": "type “L” type large-neutral amino acid transport system", "assay": "in vitro uptake studies in human tumor cells, summary", "assay_type": "cell-based", "conditions": "U87, DU145, A549, SKOV3, MB468 cells (Table 1)", "excerpt": "The inventive compounds have been evaluated in vitro for tumor binding specificity (i.e. uptake cells) using a variety of tumor cell lines available in the art, along with reference compounds such as Me-AIB and BCH. Detailed description of these assays can be found in Martarello et al. (2002) Journal of Medicinal Chemistry, 45:2250-2259 and McConathy et al. (2003) Nuclear Medicine and Biology, 30:477-490. These, so called “amino acid uptake studies” are typically carried out with radiolabeled compounds in at least five phenotypically different human tumor cell lines (e.g. A549 lung carcinoma, MB468 breast carcinoma, DU145 prostate carcinoma, SKOV3 ovarian carcinoma, and U87 glial blastoma). These tumor cell lines can be grown either in vitro or in vivo with severe combined immunodeficiency (SCID) mice as a host. […]\nIn the in vitro studies the uptake rate of each amino acid compound is measured in each tumor line, as well as the dominant transport mechanisms of each tumor cell line. After trypsinization, cells are resuspended in serum-free media, then counted on a hemocytometer, with viability assessed through Trypan blue staining. […] The vials are placed in a Cobra-II gamma counter (Packard, Meriden, Conn.), with the activity per cell number determined. […] Saline washes are performed as described above, and the filtered cells radioactivity determined on the gamma counter. […]"}},
  "data": [
    {"smiles": "NC1(C(=O)O)CCC1[18F]", "note": "[Anti-R,S 2-[^18F]FACBC, (R,S) anti-1-amino-2-[^18F]fluorocyclobutyl-1-carboxylic acid]", "values": [
      {"measurement": "% Dose/g blood", "setting": "[1]; 15 Minutes", "result": 3.50, "unit": "% Dose/g"},
      {"measurement": "% Dose/g bone", "setting": "[1]; 15 Minutes", "result": 2.10, "unit": "% Dose/g"},
      {"measurement": "% Dose/g brain", "setting": "[1]; 15 Minutes", "result": 0.28, "unit": "% Dose/g"},
      {"measurement": "% Dose/g heart", "setting": "[1]; 15 Minutes", "result": 2.59, "unit": "% Dose/g"},
      {"measurement": "% Dose/g kidney", "setting": "[1]; 15 Minutes", "result": 9.21, "unit": "% Dose/g"},
      {"measurement": "% Dose/g liver", "setting": "[1]; 15 Minutes", "result": 3.43, "unit": "% Dose/g"},
      {"measurement": "% Dose/g lung", "setting": "[1]; 15 Minutes", "result": 4.08, "unit": "% Dose/g"},
      {"measurement": "% Dose/g muscle", "setting": "[1]; 15 Minutes", "result": 1.45, "unit": "% Dose/g"},
      {"measurement": "% Dose/g pancreas", "setting": "[1]; 15 Minutes", "result": 49.78, "unit": "% Dose/g"},
      {"measurement": "% Dose/g spleen", "setting": "[1]; 15 Minutes", "result": 6.63, "unit": "% Dose/g"},
      {"measurement": "% Dose/g tumor", "setting": "[1]; 15 Minutes", "result": 6.48, "unit": "% Dose/g"},
      {"measurement": "% Dose/g blood", "setting": "[1]; 30 Minutes", "result": 2.17, "unit": "% Dose/g"},
      {"measurement": "% Dose/g bone", "setting": "[1]; 30 Minutes", "result": 1.66, "unit": "% Dose/g"},
      {"measurement": "% Dose/g brain", "setting": "[1]; 30 Minutes", "result": 0.22, "unit": "% Dose/g"},
      {"measurement": "% Dose/g heart", "setting": "[1]; 30 Minutes", "result": 2.00, "unit": "% Dose/g"},
      {"measurement": "% Dose/g kidney", "setting": "[1]; 30 Minutes", "result": 5.08, "unit": "% Dose/g"},
      {"measurement": "% Dose/g liver", "setting": "[1]; 30 Minutes", "result": 2.58, "unit": "% Dose/g"},
      {"measurement": "% Dose/g lung", "setting": "[1]; 30 Minutes", "result": 2.82, "unit": "% Dose/g"},
      {"measurement": "% Dose/g muscle", "setting": "[1]; 30 Minutes", "result": 1.12, "unit": "% Dose/g"},
      {"measurement": "% Dose/g pancreas", "setting": "[1]; 30 Minutes", "result": 41.30, "unit": "% Dose/g"},
      {"measurement": "% Dose/g spleen", "setting": "[1]; 30 Minutes", "result": 5.11, "unit": "% Dose/g"},
      {"measurement": "% Dose/g tumor", "setting": "[1]; 30 Minutes", "result": 5.44, "unit": "% Dose/g"},
      {"measurement": "% Dose/g blood", "setting": "[1]; 60 Minutes", "result": 0.81, "unit": "% Dose/g"},
      {"measurement": "% Dose/g bone", "setting": "[1]; 60 Minutes", "result": 1.21, "unit": "% Dose/g"},
      {"measurement": "% Dose/g brain", "setting": "[1]; 60 Minutes", "result": 0.17, "unit": "% Dose/g"},
      {"measurement": "% Dose/g heart", "setting": "[1]; 60 Minutes", "result": 1.13, "unit": "% Dose/g"},
      {"measurement": "% Dose/g kidney", "setting": "[1]; 60 Minutes", "result": 2.00, "unit": "% Dose/g"},
      {"measurement": "% Dose/g liver", "setting": "[1]; 60 Minutes", "result": 1.22, "unit": "% Dose/g"},
      {"measurement": "% Dose/g lung", "setting": "[1]; 60 Minutes", "result": 1.15, "unit": "% Dose/g"},
      {"measurement": "% Dose/g muscle", "setting": "[1]; 60 Minutes", "result": 1.10, "unit": "% Dose/g"},
      {"measurement": "% Dose/g pancreas", "setting": "[1]; 60 Minutes", "result": 17.78, "unit": "% Dose/g"},
      {"measurement": "% Dose/g spleen", "setting": "[1]; 60 Minutes", "result": 3.02, "unit": "% Dose/g"},
      {"measurement": "% Dose/g tumor", "setting": "[1]; 60 Minutes", "result": 3.61, "unit": "% Dose/g"},
      {"measurement": "% Dose/g blood", "setting": "[1]; 120 Minutes", "result": 0.46, "unit": "% Dose/g"},
      {"measurement": "% Dose/g bone", "setting": "[1]; 120 Minutes", "result": 1.20, "unit": "% Dose/g"},
      {"measurement": "% Dose/g brain", "setting": "[1]; 120 Minutes", "result": 0.16, "unit": "% Dose/g"},
      {"measurement": "% Dose/g heart", "setting": "[1]; 120 Minutes", "result": 0.89, "unit": "% Dose/g"},
      {"measurement": "% Dose/g kidney", "setting": "[1]; 120 Minutes", "result": 1.10, "unit": "% Dose/g"},
      {"measurement": "% Dose/g liver", "setting": "[1]; 120 Minutes", "result": 0.75, "unit": "% Dose/g"},
      {"measurement": "% Dose/g lung", "setting": "[1]; 120 Minutes", "result": 0.64, "unit": "% Dose/g"},
      {"measurement": "% Dose/g muscle", "setting": "[1]; 120 Minutes", "result": 0.99, "unit": "% Dose/g"},
      {"measurement": "% Dose/g pancreas", "setting": "[1]; 120 Minutes", "result": 10.20, "unit": "% Dose/g"},
      {"measurement": "% Dose/g spleen", "setting": "[1]; 120 Minutes", "result": 1.48, "unit": "% Dose/g"},
      {"measurement": "% Dose/g tumor", "setting": "[1]; 120 Minutes", "result": 2.73, "unit": "% Dose/g"},
      {"measurement": "uptake by the type “L” type large-neutral amino acid transport system", "setting": "[2]", "result": "high uptake"}
    ]}
  ]
}
